Assay results as given in PubChem BioAssay AID1259407 (Chemical Carcinogenesis Research Information System (CCRIS), 2018).
Activity calls are given as the source filed them. How the calls were made is not given here.

Tested on: CCRIS mutagenicity, Ames/micronucleus/aberration tests
Experiment: CCRIS mutagenicity studies
[1] = Test System: AMES SALMONELLA TYPHIMURIUM, Strain/Indicator: TA98, Metabolic Activation: NONE, Method: STANDARD PLATE
[2] = Test System: AMES SALMONELLA TYPHIMURIUM, Strain/Indicator: TA100, Metabolic Activation: NONE, Method: STANDARD PLATE
[3] = Test System: AMES SALMONELLA TYPHIMURIUM, Strain/Indicator: TA98, Metabolic Activation: NONE, Method: PREINCUBATION

Question: What does the source list for `Fc1ccccc1-c1ccccc1`?
Answer: mutagenic call (Test System: AMES SALMONELLA TYPHIMURIUM, Strain/Indicator: TA98, Metabolic Activation: HAMSTER, LIVER, S-9, AROCLOR 1254, Method: STANDARD PLATE): inactive; negative; mutagenic call [1]: inactive; negative; mutagenic call (Test System: AMES SALMONELLA TYPHIMURIUM, Strain/Indicator: TA98, Metabolic Activation: RAT, LIVER, S-9, AROCLOR 1254, Method: STANDARD PLATE): inactive; negative; mutagenic call (Test System: AMES SALMONELLA TYPHIMURIUM, Strain/Indicator: TA100, Metabolic Activation: HAMSTER, LIVER, S-9, AROCLOR 1254, Method: STANDARD PLATE): inactive; negative; mutagenic call [2]: inactive; negative; mutagenic call (Test System: AMES SALMONELLA TYPHIMURIUM, Strain/Indicator: TA100, Metabolic Activation: RAT, LIVER, S-9, AROCLOR 1254, Method: STANDARD PLATE): inactive; negative; mutagenic call (Test System: AMES SALMONELLA TYPHIMURIUM, Strain/Indicator: TA1535, Metabolic Activation: HAMSTER, LIVER, S-9, AROCLOR 1254, Method: STANDARD PLATE): inactive; negative; mutagenic call (Test System: AMES SALMONELLA TYPHIMURIUM, Strain/Indicator: TA1535, Metabolic Activation: NONE, Method: STANDARD PLATE): inactive; negative; mutagenic call (Test System: AMES SALMONELLA TYPHIMURIUM, Strain/Indicator: TA1535, Metabolic Activation: RAT, LIVER, S-9, AROCLOR 1254, Method: STANDARD PLATE): inactive; negative; mutagenic call (Test System: AMES SALMONELLA TYPHIMURIUM, Strain/Indicator: TA1537, Metabolic Activation: HAMSTER, LIVER, S-9, AROCLOR 1254, Method: STANDARD PLATE): inactive; negative; mutagenic call (Test System: AMES SALMONELLA TYPHIMURIUM, Strain/Indicator: TA1537, Metabolic Activation: NONE, Method: STANDARD PLATE): inactive; negative; mutagenic call (Test System: AMES SALMONELLA TYPHIMURIUM, Strain/Indicator: TA1537, Metabolic Activation: RAT, LIVER, S-9, AROCLOR 1254, Method: STANDARD PLATE): inactive; negative; mutagenic call (Test System: AMES SALMONELLA TYPHIMURIUM, Strain/Indicator: TA1538, Metabolic Activation: HAMSTER, LIVER, S-9, AROCLOR 1254, Method: STANDARD PLATE): inactive; negative; mutagenic call (Test System: AMES SALMONELLA TYPHIMURIUM, Strain/Indicator: TA1538, Metabolic Activation: NONE, Method: STANDARD PLATE): inactive; negative; mutagenic call (Test System: AMES SALMONELLA TYPHIMURIUM, Strain/Indicator: TA1538, Metabolic Activation: RAT, LIVER, S-9, AROCLOR 1254, Method: STANDARD PLATE): inactive; negative; mutagenic call (Test System: Mouse lymphoma, Strain/Indicator: L5178Y (tk+/tk-), Metabolic Activation: None, Method: Suspension/plate): inactive; negative; mutagenic call (Test System: Mouse lymphoma, Strain/Indicator: L5178Y (tk+/tk-), Metabolic Activation: Rat, Liver, S-9, Aroclor 1254, Method: Suspension/plate): inactive; negative

Question: With `Oc1cc(Cl)ccc1Cl` as the molecule, how does the mutagenic call (Test System: AMES SALMONELLA TYPHIMURIUM, Strain/Indicator: TA98, Metabolic Activation: HAMSTER, LIVER, S-9, AROCLOR 1254, Method: PREINCUBATION) read?
Answer: inactive; negative

Question: And the mutagenic call [3]?
Answer: inactive; negative

Question: What about the mutagenic call (Test System: AMES SALMONELLA TYPHIMURIUM, Strain/Indicator: TA98, Metabolic Activation: RAT, LIVER, S-9, AROCLOR 1254, Method: PREINCUBATION) of the same molecule?
Answer: inactive; negative

Question: And the mutagenic call (Test System: AMES SALMONELLA TYPHIMURIUM, Strain/Indicator: TA100, Metabolic Activation: HAMSTER, LIVER, S-9, AROCLOR 1254, Method: PREINCUBATION)?
Answer: inactive; negative

Question: What about the mutagenic call (Test System: AMES SALMONELLA TYPHIMURIUM, Strain/Indicator: TA100, Metabolic Activation: NONE, Method: PREINCUBATION) of the same molecule?
Answer: inactive; negative

Question: And the mutagenic call (Test System: AMES SALMONELLA TYPHIMURIUM, Strain/Indicator: TA100, Metabolic Activation: RAT, LIVER, S-9, AROCLOR 1254, Method: PREINCUBATION)?
Answer: inactive; negative

Question: And the mutagenic call (Test System: AMES SALMONELLA TYPHIMURIUM, Strain/Indicator: TA1535, Metabolic Activation: HAMSTER, LIVER, S-9, AROCLOR 1254, Method: PREINCUBATION)?
Answer: inactive; negative

Question: What about the mutagenic call (Test System: AMES SALMONELLA TYPHIMURIUM, Strain/Indicator: TA1535, Metabolic Activation: NONE, Method: PREINCUBATION) of the same molecule?
Answer: inactive; negative

Question: What about the mutagenic call (Test System: AMES SALMONELLA TYPHIMURIUM, Strain/Indicator: TA1535, Metabolic Activation: RAT, LIVER, S-9, AROCLOR 1254, Method: PREINCUBATION) of the same molecule?
Answer: inactive; negative

Question: And the mutagenic call (Test System: AMES SALMONELLA TYPHIMURIUM, Strain/Indicator: TA1537, Metabolic Activation: HAMSTER, LIVER, S-9, AROCLOR 1254, Method: PREINCUBATION)?
Answer: inactive; negative

Question: And the mutagenic call (Test System: AMES SALMONELLA TYPHIMURIUM, Strain/Indicator: TA1537, Metabolic Activation: NONE, Method: PREINCUBATION)?
Answer: inactive; negative

Question: And the mutagenic call (Test System: AMES SALMONELLA TYPHIMURIUM, Strain/Indicator: TA1537, Metabolic Activation: RAT, LIVER, S-9, AROCLOR 1254, Method: PREINCUBATION)?
Answer: inactive; negative

Question: What about the mutagenic call (Test System: CHINESE HAMSTER OVARY CELLS, Strain/Indicator: CHO-K1-BH4 (HPRT)/6-THIOGUANINE, Metabolic Activation: NONE, Method: PREINCUBATION) of the same molecule?
Answer: inactive; negative

Question: And the mutagenic call (Test System: CHINESE HAMSTER OVARY CELLS, Strain/Indicator: CHO-K1-BH4 (HPRT)/6-THIOGUANINE, Metabolic Activation: S-9, Method: PREINCUBATION)?
Answer: inactive; negative

Question: Which results are given for `CC(O)CC(C)(C)O` (stereo not drawn)?
Answer: mutagenic call (Test System: Ames Salmonella typhimurium, Strain/Indicator: TA98, Metabolic Activation: None, Method: Preincubation): inactive; negative; mutagenic call (Test System: Ames Salmonella typhimurium, Strain/Indicator: TA98, Metabolic Activation: Rat, Liver, S9, Sodium phenobarbital and 5,6-benzoflavone (10%), Method: Preincubation): inactive; negative; mutagenic call (Test System: Ames Salmonella typhimurium, Strain/Indicator: TA100, Metabolic Activation: None, Method: Preincubation): inactive; negative; mutagenic call (Test System: Ames Salmonella typhimurium, Strain/Indicator: TA100, Metabolic Activation: Rat, Liver, S9, Sodium phenobarbital and 5,6-benzoflavone (10%), Method: Preincubation): inactive; negative; mutagenic call (Test System: Ames Salmonella typhimurium, Strain/Indicator: TA1535, Metabolic Activation: None, Method: Preincubation): inactive; negative; mutagenic call (Test System: Ames Salmonella typhimurium, Strain/Indicator: TA1535, Metabolic Activation: Rat, Liver, S9, Sodium phenobarbital and 5,6-benzoflavone (10%), Method: Preincubation): inactive; negative; mutagenic call (Test System: Ames Salmonella typhimurium, Strain/Indicator: TA1537, Metabolic Activation: None, Method: Preincubation): inactive; negative; mutagenic call (Test System: Ames Salmonella typhimurium, Strain/Indicator: TA1537, Metabolic Activation: Rat, Liver, S9, Sodium phenobarbital and 5,6-benzoflavone (10%), Method: Preincubation): inactive; negative; mutagenic call (Test System: E. coli, Strain/Indicator: WP2uvrA/pKM101, Metabolic Activation: None, Method: Preincubation): inactive; negative; mutagenic call (Test System: E. coli, Strain/Indicator: WP2uvrA/pKM101, Metabolic Activation: Rat, Liver, S9, Sodium Phenobarbital and 5,6-benzoflavone (10%), Method: Preincubation): inactive; negative

Question: For `Nc1c[n+](N2CCOCC2)no1`, which mutagenic call (Test System: E. COLI, Strain/Indicator: WP2 UVRA (PKM101), Metabolic Activation: NONE, Method: STANDARD PLATE) is on record?
Answer: inactive; negative

Question: And the mutagenic call (Test System: E. COLI, Strain/Indicator: WP2 UVRA/OXYR (PKM101), Metabolic Activation: NONE, Method: STANDARD PLATE)?
Answer: active; positive

Question: With `Cc1cccn2c1nc1ccc(NO)nc12` as the molecule, how does the mutagenic call [3] read?
Answer: active; positive

Question: What about the mutagenic call (Test System: AMES SALMONELLA TYPHIMURIUM, Strain/Indicator: YG1020, Metabolic Activation: NONE, Method: PREINCUBATION) of the same molecule?
Answer: active; positive

Question: And the mutagenic call (Test System: AMES SALMONELLA TYPHIMURIUM, Strain/Indicator: YG1021, Metabolic Activation: NONE, Method: PREINCUBATION)?
Answer: active; positive

Question: And the mutagenic call (Test System: AMES SALMONELLA TYPHIMURIUM, Strain/Indicator: YG1024, Metabolic Activation: NONE, Method: PREINCUBATION)?
Answer: active; positive

Question: What about the mutagenic call (Test System: AMES SALMONELLA TYPHIMURIUM, Strain/Indicator: YG1025, Metabolic Activation: NONE, Method: PREINCUBATION) of the same molecule?
Answer: inactive; negative

Question: And the mutagenic call (Test System: AMES SALMONELLA TYPHIMURIUM, Strain/Indicator: YG1029, Metabolic Activation: NONE, Method: PREINCUBATION)?
Answer: active; positive

Question: And the mutagenic call (Test System: AMES SALMONELLA TYPHIMURIUM, Strain/Indicator: YG1041, Metabolic Activation: NONE, Method: PREINCUBATION)?
Answer: active; positive

Question: Which results are given for `COc1c(OC)c2occc2c2oc(=O)ccc12`?
Answer: mutagenic call [1]: inactive; negative; mutagenic call (Test System: AMES SALMONELLA TYPHIMURIUM, Strain/Indicator: TA98, Metabolic Activation: RAT, LIVER, S-9, PHENOBARBITAL, Method: STANDARD PLATE): inactive; negative

Question: For `COc1ccc2[nH]c3c(C)cc(N)c(C)c3c2c1`, which mutagenic call [1] is on record?
Answer: inactive; negative

Question: What about the mutagenic call (Test System: AMES SALMONELLA TYPHIMURIUM, Strain/Indicator: TA98, Metabolic Activation: RAT LIVER S-9, AROCLOR 1254, Method: STANDARD PLATE) of the same molecule?
Answer: active; positive

Question: And the mutagenic call [2]?
Answer: inactive; negative

Question: And the mutagenic call (Test System: AMES SALMONELLA TYPHIMURIUM, Strain/Indicator: TA100, Metabolic Activation: RAT LIVER S-9, AROCLOR 1254, Method: STANDARD PLATE)?
Answer: inactive; negative

Question: `Fc1cnc2ccc3cccnc3c2c1` was tested. Which mutagenic call (Test System: AMES SALMONELLA TYPHIMURIUM, Strain/Indicator: TA100, Metabolic Activation: RAT, LIVER, S-9, PHENOBARBITAL AND 5,6-BENZOFLAVONE, Method: PREINCUBATION) did it give?
Answer: active; positive

Question: Which mutagenic call (End Point: IN VITRO CHROMOSOMAL ABERRATIONS, Test System: CHL CELLS, Metabolic Activation: RAT, LIVER, S-9, SODIUM PHENOBARBITAL AND 5,6-BENZOFLAVONE) does the source give for `O=[N+]([O-])c1cccc(Cl)c1F` here?
Answer: active; positive (structural changes)
